Patent US20250177525A1, “POLYDONOR CD4+ T CELLS EXPRESSING IL-10 AND USES THEREOF” (TR1X, INC., priority 2021, published 2025)

Tested on: NLPR3 inflammasome
Assay: IL-1β production by LPS activated monocytes
Type: cell-based, human
Conditions: anti-IL-10R antibody
Protocol: CD14^+ monocytes were isolated from PBMC using a pan monocyte isolation kit (Miltenyi Biotec, Bergisch Gladbach, Germany) and plated in 96 flat microtiter wells at 2×10^5/200 μL per well and cultured in the presence of LPS. The cells were cultured further in the presence of Z-YVADfmk (20 microMol), MMC950 (10 microMol), IL-10 (10 ng/mL) or various concentrations of single- or pooled donor CD4^IL-10 cell supernatants as summarized in Table 1.
The supernatants were obtained from single- or pooled donor CD4^IL-10 cells activated for 72 hours with a combination of CD3 and CD28 antibodies as described previously. (Andolfi et al. 2012, Mol. Therapy Vol. 20, 1778-1790, Locafaro et al. Mol Ther 2017, 25, 2254) In some cases (FIGS. 19C and 19D), the monocytes were incubated with LPS in combination with the NLPR3 inflammasome activator nigericin (“NIG”) which was added during the last 30 minutes of the LPS activation.
The NLPR3 inflammasome was activated by LPS, resulting in the production of mature caspase 1 and the biologically active forms of IL-1β and IL-18.

Row | Molecule | effect of anti-IL-10 receptor antibody on the inhibitory effects
1 | CC(C)(O)c1coc(S(=O)(=O)NC(=O)Nc2c3c(cc4c2CCC4)CCC3)c1 [MCC950] | no effect
2 | Z-YVADfmk [Z-VADfmk] | no effect
